Measurements from patent US20240018163A1, “NEW THIAZOLOPYRIMIDINONE DERIVATIVES” (Hoffmann-La Roche Inc., priority 2021, published 2024).
pEC50: −log10 of the molar value.

tested on: mutant HTT protein (mHTT); assay: Homogeneous Time Resolved Fluorescence (HTRF) assay for HTT lowering; type: cell-based; details: reduction of mHTT in Huntington patient human cells (GENEAe020-A cell line), 48 hours incubation, mean from three replicates
Experimental: Homogeneous Time Resolved Fluorescence for HTT lowering
The HTRF assay was adapted from Weiss et al. (Analytical Biochemistry Volume 395, Issue 1, 1 Dec. 2009, Pages 8-15 and Analytical Biochemistry Volume 410, 2011, Pages 304-306) to cells from GENEAe020-A cell line (https://hpscreg.eu/cell-line/GENEAe020-A).
Compounds were tested for the effect of mutant HTT levels in Huntington patient human cells (GENEAe020-A cell line) using Homogeneous Time Resolved Fluorescence (HTRF) directed towards mutant HTT protein (mHTT). The GENEAe020-A cell line was derived by Genea Biocells from human blastocysts of HD donors. After assessing viability, cells were plated into 384 well collagen coated plates in growth media. Once cells adhered, media was removed and test compounds dissolved in DMSO were diluted with buffer solution and added to the adherent cells. Controls included experiments with no cells, DMSO with no compound, and Hsp90 inhibitor control. Cells were incubated with compounds and controls for 48 hours. Then, the cells were lysed and transferred to an assay plate containing HTRF labeled monoclonal antibodies developed by Paul Patterson (Ko et al., Brain Research Bulletin, Volume 56, Numbers 3 and 4, 2001, Pages 319-329) which recognize specific areas of the HTT protein. The terbium labeled “donor” antibody (2B7) binds to the N-terminus of the HTT protein and the Alexa488 labeled “acceptor” antibody (MW1) is specific for the polyglutamine region of the protein. Binding of the acceptor labeled antibody is more efficient for the extended polyglutamine repeats of mutant HTT protein which translates into a signal boost which enables the specific measurement of mutant HTT protein level. The HTRF donor and acceptor detection reagents were incubated with the cell lysate and the ratio between the signals of the two fluorophores is indicative of the relative quantities of mHTT.

`Cc1cn2nc(-c3cc(=O)n4cc(N5CCNCC5)sc4n3)cc(OC(F)F)c2n1` [Example 27, 7-[8-(difluoromethoxy)-2-methyl-imidazo[1,2-b]pyridazin-6-yl]-2-piperazin-1-yl-thiazolo[3,2-a]pyrimidin-5-one] was tested. Which pEC50 did it give?
Its pEC50 is 7.17.

`Cc1nc2c(C(F)(F)F)cc(-c3cc(=O)n4cc(N5CCNCC5)sc4n3)nc2o1` [Example 28, 7-[2-methyl-7-(trifluoromethyl)oxazolo[5,4-b]pyridin-5-yl]-2-piperazin-1-yl-thiazolo[3,2-a]pyrimidin-5-one] was tested. Which pEC50 did it give?
The pEC50 was 6.16.

With `COc1cc(-c2cc(=O)n3cc(C4CCNCC4)sc3n2)nn2cc(C)nc12` [Example 29, 7-(8-methoxy-2-methyl-imidazo[1,2-b]pyridazin-6-yl)-2-(4-piperidyl)thiazolo[3,2-a]pyrimidin-5-one] as the compound, how does the pEC50 read?
Its pEC50 is 7.46.

How did the pEC50 turn out when `Cc1nc2c(C)cc(-c3cc(=O)n4cc(C5CCNCC5)sc4n3)nc2o1` [Example 30, 7-(2,7-dimethyloxazolo[5,4-b]pyridin-5-yl)-2-(4-piperidyl)thiazolo[3,2-a]pyrimidin-5-one] was run?
The pEC50 was 7.40.

How did the pEC50 turn out when `Cc1cc(-c2cc(=O)n3cc(C4CCNCC4)sc3n2)nn2cc(Cl)nc12` [Example 31, 7-(2-chloro-8-methyl-imidazo[1,2-b]pyridazin-6-yl)-2-(4-piperidyl)thiazolo[3,2-a]pyrimidin-5-one] was run?
Its pEC50 is 7.15.

With `Cc1cn2nc(-c3cc(=O)n4cc([C@@H]5CCNC[C@@H]5F)sc4n3)cc(C)c2n1` [Example 32, 7-(2,8-dimethylimidazo[1,2-b]pyridazin-6-yl)-2-[(3R,4R)-3-fluoro-4-piperidyl]thiazolo[3,2-a]pyrimidin-5-one] as the compound, how does the pEC50 read?
Its pEC50 is 7.48.

How did the pEC50 turn out when `Cc1cn2nc(-c3cc(=O)n4cc([C@H]5CCNC[C@H]5F)sc4n3)cc(C)c2n1` [Example 33, 7-(2,8-dimethylimidazo[1,2-b]pyridazin-6-yl)-2-[(3S,4S)-3-fluoro-4-piperidyl]thiazolo[3,2-a]pyrimidin-5-one] was run?
The pEC50 was 7.07.

With `COc1cc(-c2cc(=O)n3cc([C@@H]4CCNC[C@@H]4F)sc3n2)nn2cc(C)nc12` [Example 34, 7-(8-methoxy-2-methyl-imidazo[1,2-b]pyridazin-6-yl)-2-[(3R,4R)-3-fluoro-4-piperidyl]thiazolo[3,2-a]pyrimidin-5-one] as the compound, how does the pEC50 read?
The pEC50 was 7.66.

With `COc1cc(-c2cc(=O)n3cc([C@H]4CCNC[C@H]4F)sc3n2)nn2cc(C)nc12` [Example 35, 7-(8-methoxy-2-methyl-imidazo[1,2-b]pyridazin-6-yl)-2-[(3S,4S)-3-fluoro-4-piperidyl]thiazolo[3,2-a]pyrimidin-5-one] as the compound, how does the pEC50 read?
The pEC50 was 7.21.

How did the pEC50 turn out when `Cc1cn2nc(-c3cc(=O)n4cc([C@H]5CCNC6(CC6)C5)sc4n3)cc(C)c2n1` [Example 36, 7-(2,8-dimethylimidazo[1,2-b]pyridazin-6-yl)-2-[(7S)-4-azaspiro[2.5]octan-7-yl]thiazolo[3,2-a]pyrimidin-5-one] was run?
The pEC50 was 7.26.

How did the pEC50 turn out when `Cc1cn2nc(-c3cc(=O)n4cc([C@@H]5CCNC6(CC6)C5)sc4n3)cc(C)c2n1` [Example 37, 7-(2,8-dimethylimidazo[1,2-b]pyridazin-6-yl)-2-[(7R)-4-azaspiro[2.5]octan-7-yl]thiazolo[3,2-a]pyrimidin-5-one] was run?
The pEC50 was 6.95.

How did the pEC50 turn out when `Cc1cn2nc(-c3cc(=O)n4cc([C@@H]5CCNC[C@H]5F)sc4n3)cc(C)c2n1` [Example 38, 7-(2,8-dimethylimidazo[1,2-b]pyridazin-6-yl)-2-[(3S,4R)-3-fluoro-4-piperidyl]thiazolo[3,2-a]pyrimidin-5-one] was run?
Its pEC50 is 6.55.

With `Cc1cn2nc(-c3cc(=O)n4cc([C@H]5CCNC[C@@H]5F)sc4n3)cc(C)c2n1` [Example 39, 7-(2,8-dimethylimidazo[1,2-b]pyridazin-6-yl)-2-[(3R,4S)-3-fluoro-4-piperidyl]thiazolo[3,2-a]pyrimidin-5-one] as the compound, how does the pEC50 read?
Its pEC50 is 7.28.

With `COc1cc(-c2cc(=O)n3cc([C@H]4CCNC5(CC5)C4)sc3n2)nn2cc(C)nc12` [Example 40, 7-(8-methoxy-2-methyl-imidazo[1,2-b]pyridazin-6-yl)-2-[(7S)-4-azaspiro[2.5]octan-7-yl]thiazolo[3,2-a]pyrimidin-5-one] as the compound, how does the pEC50 read?
Its pEC50 is 7.08.

How did the pEC50 turn out when `COc1cc(-c2cc(=O)n3cc([C@@H]4CCNC5(CC5)C4)sc3n2)nn2cc(C)nc12` [Example 41, 7-(8-methoxy-2-methyl-imidazo[1,2-b]pyridazin-6-yl)-2-[(7R)-4-azaspiro[2.5]octan-7-yl]thiazolo[3,2-a]pyrimidin-5-one] was run?
The pEC50 was 6.97.

How did the pEC50 turn out when `COc1cc(-c2cc(=O)n3cc(C4(F)CCNCC4)sc3n2)nn2cc(C)nc12` [Example 42, 2-(4-fluoro-4-piperidyl)-7-(8-methoxy-2-methyl-imidazo[1,2-b]pyridazin-6-yl)thiazolo[3,2-a]pyrimidin-5-one] was run?
Its pEC50 is 7.28.

How did the pEC50 turn out when `Cc1cc(-c2cc(=O)n3cc([C@@H]4CCNC[C@@H]4F)sc3n2)nn2cc(Cl)nc12` [Example 43, 7-(2-chloro-8-methyl-imidazo[1,2-b]pyridazin-6-yl)-2-[(3R,4R)-3-fluoro-4-piperidyl]thiazolo[3,2-a]pyrimidin-5-one] was run?
Its pEC50 is 6.82.

`Cc1nc2c(C)cc(-c3cc(=O)n4cc([C@@H]5CCNC[C@@H]5F)sc4n3)nc2o1` [Example 44, 7-(2,7-dimethyloxazolo[5,4-b]pyridin-5-yl)-2-[(3R,4R)-3-fluoro-4-piperidyl]thiazolo[3,2-a]pyrimidin-5-one] was tested. Which pEC50 did it give?
The pEC50 was 7.23.

With `COc1cc(-c2cc(=O)n3cc([C@@H]4CCNC[C@H]4F)sc3n2)nn2cc(C)nc12` [Example 45, 7-(8-methoxy-2-methyl-imidazo[1,2-b]pyridazin-6-yl)-2-[(3S,4R)-3-fluoro-4-piperidyl]thiazolo[3,2-a]pyrimidin-5-one] as the compound, how does the pEC50 read?
Its pEC50 is 7.01.

With `COc1cc(-c2cc(=O)n3cc([C@H]4CCNC[C@@H]4F)sc3n2)nn2cc(C)nc12` [Example 46, 7-(8-methoxy-2-methyl-imidazo[1,2-b]pyridazin-6-yl)-2-[(3R,4S)-3-fluoro-4-piperidyl]thiazolo[3,2-a]pyrimidin-5-one] as the compound, how does the pEC50 read?
The pEC50 was 7.16.

With `Cc1cn2nc(-c3cc(=O)n4cc([C@H]5C[C@H]6CNC[C@@H](C5)O6)sc4n3)cc(C)c2n1` [Example 47, 7-(2,8-dimethylimidazo[1,2-b]pyridazin-6-yl)-2-[rac-(1R,5S)-9-oxa-3-azabicyclo[3.3.1]nonan-7-yl]thiazolo[3,2-a]pyrimidin-5-one] as the compound, how does the pEC50 read?
Its pEC50 is 6.48.

With `Cc1cn2nc(-c3cc(=O)n4cc([C@H]5C[C@H]6CNC[C@@H](C5)O6)sc4n3)cc(C)c2n1` [Example 48, 7-(2,8-dimethylimidazo[1,2-b]pyridazin-6-yl)-2-[rac-(1S,5R)-9-oxa-3-azabicyclo[3.3.1]nonan-7-yl]thiazolo[3,2-a]pyrimidin-5-one] as the compound, how does the pEC50 read?
The pEC50 was 7.04.

`COc1cc(-c2cc(=O)n3cc([C@H]4C[C@H]5CNC[C@@H](C4)O5)sc3n2)nn2cc(C)nc12` [Example 49, 7-(8-methoxy-2-methyl-imidazo[1,2-b]pyridazin-6-yl)-2-[rac-(1R,5S)-9-oxa-3-azabicyclo[3.3.1]nonan-7-yl]thiazolo[3,2-a]pyrimidin-5-one] was tested. Which pEC50 did it give?
Its pEC50 is 6.70.

`COc1cc(-c2cc(=O)n3cc([C@H]4C[C@H]5CNC[C@@H](C4)O5)sc3n2)nn2cc(C)nc12` [Example 50, 7-(8-methoxy-2-methyl-imidazo[1,2-b]pyridazin-6-yl)-2-[rac-(1S,5R)-9-oxa-3-azabicyclo[3.3.1]nonan-7-yl]thiazolo[3,2-a]pyrimidin-5-one] was tested. Which pEC50 did it give?
The pEC50 was 7.24.
